Experiments:
in vivo = conditions: rat
hERG = hERG (Homo sapiens, UniProt Q12809); format: binding
α 1D = molecular target: T1, α 1D (Homo sapiens, UniProt P25100); assay: NIMH-PDSP broad-panel counter screening; conditions: read-out: % inhibition (10 μM)
T1 sequence (P25100 1-572): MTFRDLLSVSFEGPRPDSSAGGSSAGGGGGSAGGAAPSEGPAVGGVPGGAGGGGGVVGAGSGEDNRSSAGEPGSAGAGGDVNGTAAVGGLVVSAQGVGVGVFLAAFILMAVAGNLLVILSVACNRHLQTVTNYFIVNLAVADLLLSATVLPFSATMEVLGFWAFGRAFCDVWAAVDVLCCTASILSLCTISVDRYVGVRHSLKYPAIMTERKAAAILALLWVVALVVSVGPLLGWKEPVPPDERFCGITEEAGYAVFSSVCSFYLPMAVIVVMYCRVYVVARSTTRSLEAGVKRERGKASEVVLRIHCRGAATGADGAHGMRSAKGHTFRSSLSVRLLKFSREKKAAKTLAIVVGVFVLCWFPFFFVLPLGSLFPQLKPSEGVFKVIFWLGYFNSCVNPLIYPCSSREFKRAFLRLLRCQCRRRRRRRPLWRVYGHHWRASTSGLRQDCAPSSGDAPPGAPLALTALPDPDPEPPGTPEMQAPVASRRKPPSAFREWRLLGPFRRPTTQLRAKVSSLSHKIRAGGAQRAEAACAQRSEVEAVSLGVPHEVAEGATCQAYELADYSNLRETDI

GABAA = assay: NIMH-PDSP broad-panel counter screening
D1R = D1R (Homo sapiens, UniProt P21728); assay: Tango β-arrestin recruitment at D1R; format: cell-based; conditions: Tango assay
D1R, sequence (P21728 whole entry): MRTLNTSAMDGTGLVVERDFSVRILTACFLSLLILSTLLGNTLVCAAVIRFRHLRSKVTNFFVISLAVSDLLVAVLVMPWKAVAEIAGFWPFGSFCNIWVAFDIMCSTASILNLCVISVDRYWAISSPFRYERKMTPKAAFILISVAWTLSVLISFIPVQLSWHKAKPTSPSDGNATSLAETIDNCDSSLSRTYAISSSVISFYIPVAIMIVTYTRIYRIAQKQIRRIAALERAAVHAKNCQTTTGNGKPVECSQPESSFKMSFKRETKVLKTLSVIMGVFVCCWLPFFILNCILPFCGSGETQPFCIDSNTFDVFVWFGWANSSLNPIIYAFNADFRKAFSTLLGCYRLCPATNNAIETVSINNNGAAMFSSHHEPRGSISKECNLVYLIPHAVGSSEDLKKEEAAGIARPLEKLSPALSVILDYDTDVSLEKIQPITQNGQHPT

hERG, sequence (Q12809 whole entry): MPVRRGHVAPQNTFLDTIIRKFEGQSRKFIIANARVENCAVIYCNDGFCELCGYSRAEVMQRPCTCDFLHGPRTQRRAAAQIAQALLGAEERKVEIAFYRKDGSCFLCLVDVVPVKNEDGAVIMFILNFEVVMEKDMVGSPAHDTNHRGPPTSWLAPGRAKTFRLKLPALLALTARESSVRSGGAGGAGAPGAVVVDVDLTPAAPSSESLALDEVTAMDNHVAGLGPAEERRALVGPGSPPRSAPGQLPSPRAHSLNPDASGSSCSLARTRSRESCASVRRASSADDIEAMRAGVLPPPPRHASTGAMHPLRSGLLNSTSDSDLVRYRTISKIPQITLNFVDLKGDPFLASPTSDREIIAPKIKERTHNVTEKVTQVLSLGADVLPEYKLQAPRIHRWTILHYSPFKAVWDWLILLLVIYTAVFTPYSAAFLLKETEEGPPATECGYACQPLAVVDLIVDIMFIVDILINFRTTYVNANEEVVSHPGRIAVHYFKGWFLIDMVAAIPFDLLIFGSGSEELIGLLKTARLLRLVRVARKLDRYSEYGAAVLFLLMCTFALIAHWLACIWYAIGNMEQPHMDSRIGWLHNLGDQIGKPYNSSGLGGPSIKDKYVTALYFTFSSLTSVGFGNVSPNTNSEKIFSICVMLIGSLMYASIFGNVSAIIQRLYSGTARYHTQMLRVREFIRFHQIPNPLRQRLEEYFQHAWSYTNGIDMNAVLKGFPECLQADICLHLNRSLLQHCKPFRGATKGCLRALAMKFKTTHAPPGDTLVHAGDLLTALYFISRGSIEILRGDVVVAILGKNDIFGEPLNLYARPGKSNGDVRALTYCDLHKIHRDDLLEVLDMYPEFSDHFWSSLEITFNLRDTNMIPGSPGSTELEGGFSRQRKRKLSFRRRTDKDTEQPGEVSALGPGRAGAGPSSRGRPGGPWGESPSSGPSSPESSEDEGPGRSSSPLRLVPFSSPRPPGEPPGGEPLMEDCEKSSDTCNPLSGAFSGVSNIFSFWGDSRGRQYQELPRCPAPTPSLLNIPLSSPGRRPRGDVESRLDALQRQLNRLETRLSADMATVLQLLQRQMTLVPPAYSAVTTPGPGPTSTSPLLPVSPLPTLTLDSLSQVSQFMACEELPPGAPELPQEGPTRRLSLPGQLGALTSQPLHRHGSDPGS

Structure (SMILES) | Vd (in vivo; male, Sprague-Dawley, plasma, iv, 10 mg/kg) [L/kg] | CL (in vivo; in vivo, po, 20 mg/kg) [L/h/kg] | hERG inhibition or binding affinity (hERG) | inhibition at 10 µM (α 1D) [%] | % inhibition (10 μM) (GABAA) [%] | β-arrestin recruitment response at D1R (D1R)
Cc1c(Nc2cc(Cc3cccc(C(F)(F)F)c3)ccn2)cccc1C(=O)NCCO [Compound 15b, N-(2-Hydroxyethyl)-2-methyl-3-((4-(3-(trifluoromethyl)benzyl)-pyridin-2-yl)amino)benzamide] | 1.85 | 6.2 ± 2.1 | did not show inhibition or binding affinity | -10.5 | −17.94 | 
O=C(NCCO)c1cccc2c1CCN2c1cc(Cc2cccc(C(F)(F)F)c2)ccn1 [Compound 4a] |  |  |  |  |  | no response
